Counter-ions that a name gives are not always drawn. Like-named read-outs stand apart in the source and are kept apart here.
How the values were obtained:
[1] = tested on: human thrombocytes; test: Inhibition of arachidonic acid induced aggregation of human thrombocytes in-vitro; format: cell-based; conditions: for Relative activity against the aggregation of human thrombocytes induced by arachidonic acid: relative to 5,6-dihydroprostacyclin = 1.0
Excerpt: Relative activity against the aggregation
of human thrombocytes induced by arachidonic acid
in-vitro (the IC50, i.e., the concentration causing
under the experimental conditions in 50% of the cases
inhibition of the platelet aggregation for 5,6-di-

[2] = tested on: ADP induced fall in platelet count; test: ADP induced fall in platelet count in-vivo in narcotized rats; set-up: species or system rat; conditions: for Relative activity on the ADP induced fall in platelet count in-vivo: relative to 5,6-dihydroprostacyclin = 1.0; for Relative activity on the ADP induced fall in platelet count in-vivo / Maximum effect % Aggregation inhibition: narcotized rats; for Effect in relation to maximum effect, 10 min. after administration (aggregation inhibition) / Effect in relation to maximum effect, 30 min. after administration (aggregation inhibition): maximum effect = 100%
Experimental: (§1) Surprising for the compounds according to the invention is the relation of their blood platelet aggregation inhibiting effect to their blood pressure lowering activity.
Relative activity on the ADP induced fall
in platelet count in-vivo in narcotized rats (urethane
narcosis; intravenous administration of the test
compounds; the ED50 for 5,6-dihydroprostacyclin under
these experimental conditions is 0.0114 mg/kg):
Duration of the platelet aggregation inhibiting
effect in-vivo (measured with the model of ADP induced
fall in platelet count in narcotized rats on intra-
venous administration of the test compounds)

[3] = tested on: blood pressure; test: Blood pressure lowering in conscious, spontaneous hypertensive rats; format: in vivo, rat; conditions: for Relative blood pressure lowering activity: relative to 5,6-dihydroprostacyclin = 1.0; for Effect in relation to maximum effect, 10 min. after administration (blood pressure lowering) / Effect in relation to maximum effect, 30 min. after administration (blood pressure lowering): maximum effect = 100%
Excerpt: as §1
Relative blood pressure lowering activity in
conscious, spontaneous hypertensive rats (measurement
via in-dwelling catheter; intravenous administration
of the test compounds; the ED20 for 5,6-dihydroprosta-
cyclin under these experimental conditions is 0.005
Duration of the blood pressure lowering effect
in conscious, spontaneous hypertensive rats (intra-

[4] = tested on: platelet aggregation versus blood pressure; test: Index of selectivity: platelet aggregation inhibition versus blood pressure lowering (from Tables 1b and 1c); format: in vivo, rat; conditions: for Index of selectivity: in comparison to 5,6-dihydroprostacyclin, calculated from Tables 1b and 1c
Excerpt: as §1
in comparison to 5,6-dihydroprostacyclin (calculated

[5] = tested on: isolated rat uterus; test: Contraction inducing activity on isolated rat uterus; conditions: Prostaglandin F2α = 100%
Excerpt: (§2) Relative contraction inducing activities
(a) tests on isolated rat uterus

[6] = tested on: isolated rat colon; test: Contraction inducing activity on isolated rat colon; conditions: Prostaglandin F2α = 100%
Excerpt: as §2
(b) tests on isolated rat colon

[7] = Chemical stability; format: physicochemical
[8] = tested on: smooth muscle of the intestine and uterus; conditions: cited from earlier work; for Smooth muscle contraction: intestine and uterus
[9] = tested on: ADP induced fall in platelet count; conditions: background statement; also blood pressure lowering; cited from earlier work
[10] = tested on: platelet aggregation versus blood pressure; conditions: background; cited from earlier work
[11] = background; cited from earlier work
[12] = conscious spontaneous hypertensive rats, intravenous

CCCCC[C@](C)(O)/C=C/[C@@H]1[C@H]2C/C(=C\c3cccc(C(=O)O)c3)O[C@H]2C[C@H]1O [1e)ii), Sodium salt of [(5E, 13E, 9α, 11α, 15S)-2,3,4-trinor-1,5-inter-m-phenylene-6,9-epoxy-11,15-dihydroxy-15-methyl]-prosta-5,13-dienoic acid]
Relative activity against the aggregation of human thrombocytes induced by arachidonic acid ([1]; in-vitro): 0.25
Relative activity on the ADP induced fall in platelet count in-vivo ([2]; intravenous): 0.97
Relative blood pressure lowering activity [3, 12]: 0.014
Index of selectivity [4]: 69.3

CCCCCC(O)C=CC1C(O)CC2OC(CCCCC(=O)O)CC21 (stereo not shown) [5,6-Dihydroprostacyclin, 5,6-dihydroprostacyclin, reference compound]
IC50 ([1]; human thrombocytes, induced by arachidonic acid, in-vitro, read-out: IC50, inhibition of platelet aggregation): 180 nM
Relative activity against the aggregation of human thrombocytes induced by arachidonic acid ([1]; in-vitro): 1.0
Maximum effect % Aggregation inhibition ([2]; 0.1 mg/kg intravenous): 62.4%
Effect in relation to maximum effect, 10 min. after administration (aggregation inhibition) ([2]; 0.1 mg/kg intravenous): 33.8%
Effect in relation to maximum effect, 30 min. after administration (aggregation inhibition) ([2]; 0.1 mg/kg intravenous): 0%
Duration of aggregation inhibiting and blood pressure lowering activities ([2]; also blood pressure lowering): only for a short time
ED50, ADP induced fall in platelet count ([2]; narcotized rats (urethane), intravenous): 11.4 µg/kg
Relative activity on the ADP induced fall in platelet count in-vivo ([2]; intravenous): 1.0
Maximum effect % Blood pressure lowering ([3]; 0.0215 mg/kg intravenous): 28%
Effect in relation to maximum effect, 10 min. after administration (blood pressure lowering) ([3]; 0.0215 mg/kg intravenous): 7.1%
Effect in relation to maximum effect, 30 min. after administration (blood pressure lowering) ([3]; 0.0215 mg/kg intravenous): 0%
ED20, blood pressure lowering ([3]; conscious spontaneous hypertensive rats, intravenous, in-dwelling catheter): 5 µg/kg
Relative blood pressure lowering activity [3, 12]: 1.0
Index of selectivity [4]: 1.0
Relation of platelet aggregation inhibiting to blood pressure lowering dosage ([4]; rat, in vivo): produces both these effects at the same dosage range
Relative contraction inducing activity [5]: 26.1%
Relative contraction inducing activity [6]: 23.8%
Chemical stability [7]: chemically stable

CCCCC[C@](C)(O)/C=C/[C@@H]1[C@H]2C/C(=C/c3cccc(C(=O)O)c3)O[C@H]2C[C@H]1O [Example 1e)i), Sodium salt of [(5Z, 13E, 9α, 11α, 15S)-2,3,4-trinor-1,5-inter-m-phenylene-6,9-epoxy-11,15-dihydroxy-15-methyl]-prosta-5,13-dienoic acid]
Relative activity against the aggregation of human thrombocytes induced by arachidonic acid ([1]; in-vitro): 0.86
Maximum effect % Aggregation inhibition ([2]; 1.0 mg/kg intravenous): 72.7%
Effect in relation to maximum effect, 10 min. after administration (aggregation inhibition) ([2]; 1.0 mg/kg intravenous): 69.3%
Effect in relation to maximum effect, 30 min. after administration (aggregation inhibition) ([2]; 1.0 mg/kg intravenous): 41.3%
Relative activity on the ADP induced fall in platelet count in-vivo ([2]; intravenous): 1.3
Relative blood pressure lowering activity [3, 12]: 0.1
Index of selectivity [4]: 13.0
Relative contraction inducing activity [5]: 0.58%
Relative contraction inducing activity [6]: 0.002%

CCCCC[C@H](O)/C=C/[C@@H]1[C@H]2C/C(=C\c3cccc(C(=O)O)c3)O[C@H]2C[C@H]1O [Example 2a, Sodium salt of [(5E, 13E, 9α, 11α, 15S)-2,3,4-trinor-1,5-inter-m-phenylene-6,9-epoxy-11,15-dihydroxy]-prosta-5,13-dienoic acid]
Relative activity against the aggregation of human thrombocytes induced by arachidonic acid ([1]; in-vitro): 1.2

CCCCC[C@H](O)/C=C/[C@@H]1[C@H]2C/C(=C/c3cccc(C(=O)O)c3)O[C@H]2C[C@H]1O [Example 2b, Sodium salt of [(5Z, 13E, 9α, 11α,15S)-2,3,4-trinor-1,5-inter-m-phenylene-6,9-epoxy-11,15-dihydroxy]prosta-5,13-dienoic acid]
Relative activity against the aggregation of human thrombocytes induced by arachidonic acid ([1]; in-vitro): 1.2

O=C(O)c1cccc(/C=C2/C[C@@H]3[C@@H](/C=C/[C@@H](O)C4CCCCC4)[C@H](O)C[C@@H]3O2)c1 [Example 3b, Sodium salt of [(5Z, 13E, 9α, 11α, 15S)-2,3,4-trinor-1,5-inter-m-phenylene-6,9-epoxy-11,15-dihydroxy-15-cyclohexyl-16,17,18,19,20-pentanor]-prosta-5,13-dienoic acid]
Activity compared with 5,6-dihydroprostacyclin, in-vitro ([1]; in-vitro (Table 1a)): several times more active than 5,6-dihydroprostacyclin
Relative activity against the aggregation of human thrombocytes induced by arachidonic acid ([1]; in-vitro): 18.0
Maximum effect % Aggregation inhibition ([2]; 0.1 mg/kg intravenous): 72.5%
Effect in relation to maximum effect, 10 min. after administration (aggregation inhibition) ([2]; 0.1 mg/kg intravenous): 62.6%
Effect in relation to maximum effect, 30 min. after administration (aggregation inhibition) ([2]; 0.1 mg/kg intravenous): 66.3%
Activity compared with 5,6-dihydroprostacyclin, in-vivo ([2]; in-vivo (Table 1b)): several times more active than 5,6-dihydroprostacyclin
Relative activity on the ADP induced fall in platelet count in-vivo ([2]; intravenous): 5.0
Maximum effect % Blood pressure lowering ([3]; 0.1 mg/kg intravenous): 23%
Effect in relation to maximum effect, 10 min. after administration (blood pressure lowering) ([3]; 0.1 mg/kg intravenous): 87.0%
Effect in relation to maximum effect, 30 min. after administration (blood pressure lowering) ([3]; 0.1 mg/kg intravenous): 39.1%
Relative blood pressure lowering activity [3, 12]: 0.25
Index of selectivity [4]: 20.0

CCCCC(CC)[C@H](O)/C=C/[C@@H]1[C@H]2C/C(=C/c3cccc(C(=O)O)c3)O[C@H]2C[C@H]1O (stereo partly drawn) [Example 4b, Sodium salt of [(5Z, 13E, 9α, 11α, 15S, 16RS)-2,3,4-trinor-1,5-inter-m-phenylene-6,9-epoxy-11,15-dihydroxy-16-ethyl]-prosta-5,13-dienoic acid]
Relative activity against the aggregation of human thrombocytes induced by arachidonic acid ([1]; in-vitro): 0.31
Maximum effect % Aggregation inhibition ([2]; 1.0 mg/kg intravenous): 66.8%
Effect in relation to maximum effect, 10 min. after administration (aggregation inhibition) ([2]; 1.0 mg/kg intravenous): 45.4%
Effect in relation to maximum effect, 30 min. after administration (aggregation inhibition) ([2]; 1.0 mg/kg intravenous): 24.5%
Relative activity on the ADP induced fall in platelet count in-vivo ([2]; intravenous): 0.2
Maximum effect % Blood pressure lowering ([3]; 1.0 mg/kg intravenous): 22%
Effect in relation to maximum effect, 10 min. after administration (blood pressure lowering) ([3]; 1.0 mg/kg intravenous): 90.9%
Effect in relation to maximum effect, 30 min. after administration (blood pressure lowering) ([3]; 1.0 mg/kg intravenous): 68.2%
Relative blood pressure lowering activity [3, 12]: 0.012
Index of selectivity [4]: 16.7

CCCCC[C@H](O)/C=C/[C@H]1[C@H](O)CC(=O)[C@@H]1C/C=C\CCCC(=O)O [PGE2]
Side effects in-vivo ([8]; administered in-vivo): may induce diarrhea and abortion
Smooth muscle contraction [8]: cause contraction of the smooth muscle of the intestine and uterus

CCCCC[C@H](O)/C=C/[C@@H]1[C@H]2C/C(=C/CCCC(=O)O)O[C@H]2C[C@H]1O [Prostacyclin, prostacyclin]
Duration of aggregation inhibiting and blood pressure lowering activities [9]: only for a short time
Relation of platelet aggregation inhibiting to blood pressure lowering dosage [10]: exhibited at generally the same dosage level
Stability [11]: not as stable as would be desirable

CCCCC[C@H](O)/C=C/[C@@H]1[C@@H](C/C=C\CCCC(=O)O)[C@@H](O)C[C@H]1O [Prostaglandin F2α]
Relative contraction inducing activity [5]: 100%
Relative contraction inducing activity [6]: 100%
Side effects in-vivo [8]: may induce diarrhea and abortion
Smooth muscle contraction [8]: cause contraction of the smooth muscle of the intestine and uterus

Reference: patent US4372971A, “Heterocyclic prostaglandin type compounds, medicaments containing them and processes for the preparation and use of these heterocyclic compounds and medicaments” (priority 1980, dated 1983)
